From patent US6284914A, “Highly water-soluble metalloproteinase inhibitors” (Fuji Yakuhin Kogyo Kabushiki Kaisha, priority 1995, dated 2001)
pIC50: −log10 of the molar value. ≈ marks a conversion by molar mass, not a printed value. Where a name gives a salt, the structure may show the parent alone. Read-outs that look alike come from different tables or passages of the source.

Tests used:
TNF-α converting enzyme = target: T1, TNF-α converting enzyme (Homo sapiens, UniProt P78536); assay: Assay for Suppression of TNF-α Production (LPS-stimulated U937 cells); assay type: cell-based; conditions: U937 cells (PMA-differentiated), Lipopoplysaccaride 0.1 μg/ml, 37° C., 6 hours, TNF-α in supernatant; read-out: Inhibitory activities for TNF-α converting enzyme, IC50 value
T1 construct: Human monocyte derived leukemia cell-line U937; endogenous in cells; host or cells: U937 (PMA-differentiated, LPS-stimulated)
Protocol: Human monocyte derived leukemia cell-line U937 [5% bovine fetal serum (Men-eki Seibutsu Ken) was added to RPMI1640 (Nissui Seiyaku) and incubated in a 5% CO2 incubation chamber at 37° C., whereby 1×10^6 cells/1 ml were placed into each well of a multi-well plate and then incubated in presence of Phorbol 12-myristate 13-acetate (10^-7 M, Wako Junyaku) overnight and differentiated to macrophage like cells.] was added with Lipopoplysaccaride (0.1 μg/ml, Sigma) derived from E.coli 0127:B8 strain alone or together with a compound in Examples, and incubated in a 5% CO2 incubation chamber at 37° C. for 6 hours. After the incubation, the culture medium was taken and centrifuged at 3000 g for 10 min., whereby the supernatant was diluted with purified water forthe measurement using the TNF-α measurement kit (Genzyme) (Table 2).

[1] = Measurement of Solubility in Water; assay type: physicochemical; conditions: distilled water, 20±5° C., 30 min., checked by eye
Protocol: A compound of Examples or a comparative compound was added to distilled water and shaken vigorously at 20±5° C. for 30 seconds at 5 min. interval. After 30 min., it was checked by watching with eye whether the compound was dissolved or not.

collagenase (MMP-1) = target: T2, collagenase (MMP-1) (Homo sapiens, UniProt P03956); assay: Assay for Collagenase Inhibitory Activity (MMP-1); assay type: biochemical
T2 construct: endogenous in cells; host or cells: human fibroblast
T2 sequence (P03956 100-469): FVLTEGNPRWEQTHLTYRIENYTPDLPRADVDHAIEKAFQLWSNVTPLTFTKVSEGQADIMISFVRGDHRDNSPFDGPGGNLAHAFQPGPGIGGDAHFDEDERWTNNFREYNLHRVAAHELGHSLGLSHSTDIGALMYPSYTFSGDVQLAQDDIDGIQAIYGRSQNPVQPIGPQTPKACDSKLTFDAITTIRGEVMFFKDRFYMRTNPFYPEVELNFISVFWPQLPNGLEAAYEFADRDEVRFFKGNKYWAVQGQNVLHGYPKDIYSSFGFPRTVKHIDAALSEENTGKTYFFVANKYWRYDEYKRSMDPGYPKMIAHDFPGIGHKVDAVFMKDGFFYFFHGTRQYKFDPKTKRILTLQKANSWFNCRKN
Protocol: (§1) Inhibitory activities of the compounds represented by the general formula (I) according to the invention for collagenase (metalloproteinase concerned with a tissue destruction) derived from human fibroblast were tested by the method of Y. Murawaki et al., [Journal of Hepatology, 18, p. 328-334 (1993)], and their inhibitory activities for stromelysin derived from human fibroblast were measured by the method of S. S. Twining et al., [Anal. Biochem., 143, p. 30 (1984)].
Inhibitory activities for collagenase (MMP-1) of the compounds of Examples and comparative compounds were measured by the method of Y. Murawaki et al., [Journal of Hepatology, 18, p. 328-334 (1993)]. The latent procollagenase was activated by incubating with mercury aminophenylacetate (2 mM) at 35° C. for 2 hours. The assay was done by using bovine type I collagen labeled with fluorescein as a substrate. The activated collagenase was added to the substrate solution (0.5 mg/ml) in Tris HCl buffer (50 mM, pH 7.5) containing sodium chloride (0.4 M) and calcium chloride (10 mM). The obtained solution was incubated at 35° C. for 2 hours. The enzyme digestion was stopped by the addition of o-phenanthroline (80 mM). The mixture was added with pig spleen elastase solution (25 μg/ml) in the above Tris HCl buffer, and incubated 37° C. for 10 min. The obtained solution was added with 70% ethanol and Tris HCl buffer (170 mM, pH 9.5) containing sodium chloride (0.61 M), whereby the indigested substrate was sedimented by centrifuging at 3000 g for 20 min. The supernatant was taken, and its intensity of fluorescence was determined by the excitation wavelength (495 nm) and the measured wavelength (520 nm), and the inhibitory activity was obtained. IC50 is a concentration of a compound assayed in the digesting enzyme, whereby the splitting of the substrate was decreased to 50% compared with that attained by the enzyme alone.

stromelysin (MMP-3) = target: T3, stromelysin (MMP-3) (Homo sapiens, UniProt P08254); assay: Assay for Stromelysin Inhibitory Activity (MMP-3); assay type: biochemical; conditions: fluorescein-labeled casein substrate, 37° C., 2 hours, pH 7.8; read-out: Inhibitory activities for matrix metalloproeinases (MMPs), MMP-3, IC50 value
T3 construct: endogenous in cells; host or cells: human fibroblast
Protocol: as §1
Inhibitory activities for stromelysin (MMP-3) of the compounds of Examples and comparative compounds were measured by the method of S. S. Twining et al., [Anal. Biochem., 143, p. 30 (1984)]. The latent prostromelysin was incubated with human plasmin (20 μg/ml) for the activation at 37° C. for 2 hours, and then the incubate was added with diisopropyl fluorophosphate solution (2.8 mg/ml) to stop the reaction. The assay was done by using casein labeled with fluorescein as the substrate. The activated stromelysin was added to a substrate solution (1 mg/ml) in Tris HCl buffer (50 mM, pH 7.8) containing calcium chloride (10 mM). The obtained solution was incubated at37° C. for 2 hours. The enzyme digestion forthesubstrate was stopped by adding 5% trichloroacetic acid. The indigested substrate was sedimented by centrifuging at 3000 g for 20 min. The supernatant was taken and added with Tris HCl buffer (0.5 M, pH 8.5), whereby its intensity of fluorescence was determined by the excitation wavelength (495 nm) and the measured wavelength (520 nm), and the inhibitory activity was obtained. IC50 is a concentration of a compound assayed in the digesting enzyme, whereby the splitting of the substrate was decreased to 50% compared with that attained by the enzyme alone.

[2] = fluorescein-labeled bovine type I collagen substrate, 35° C., 2 hours, pH 7.5, read-out: Inhibitory activities for matrix metalloproeinases (MMPs), MMP-1, IC50 value

T1 sequence (P78536 215-824): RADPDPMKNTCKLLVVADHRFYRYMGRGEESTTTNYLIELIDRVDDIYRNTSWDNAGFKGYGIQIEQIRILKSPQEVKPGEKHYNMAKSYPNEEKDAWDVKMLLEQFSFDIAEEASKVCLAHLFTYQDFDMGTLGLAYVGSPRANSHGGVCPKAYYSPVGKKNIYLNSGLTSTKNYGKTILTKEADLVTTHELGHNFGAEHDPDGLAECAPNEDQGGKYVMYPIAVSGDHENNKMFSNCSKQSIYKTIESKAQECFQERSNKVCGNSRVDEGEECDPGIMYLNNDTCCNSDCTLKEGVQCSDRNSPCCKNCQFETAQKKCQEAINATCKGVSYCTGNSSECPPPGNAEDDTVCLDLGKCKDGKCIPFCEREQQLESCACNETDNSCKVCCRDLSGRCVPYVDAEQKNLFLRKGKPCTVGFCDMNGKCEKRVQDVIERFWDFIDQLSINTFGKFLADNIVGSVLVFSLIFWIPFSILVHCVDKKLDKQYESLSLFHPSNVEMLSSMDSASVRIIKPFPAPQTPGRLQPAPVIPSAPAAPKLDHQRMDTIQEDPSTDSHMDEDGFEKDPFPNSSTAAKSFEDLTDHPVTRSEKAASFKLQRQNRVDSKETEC
T3 sequence (P08254 100-477): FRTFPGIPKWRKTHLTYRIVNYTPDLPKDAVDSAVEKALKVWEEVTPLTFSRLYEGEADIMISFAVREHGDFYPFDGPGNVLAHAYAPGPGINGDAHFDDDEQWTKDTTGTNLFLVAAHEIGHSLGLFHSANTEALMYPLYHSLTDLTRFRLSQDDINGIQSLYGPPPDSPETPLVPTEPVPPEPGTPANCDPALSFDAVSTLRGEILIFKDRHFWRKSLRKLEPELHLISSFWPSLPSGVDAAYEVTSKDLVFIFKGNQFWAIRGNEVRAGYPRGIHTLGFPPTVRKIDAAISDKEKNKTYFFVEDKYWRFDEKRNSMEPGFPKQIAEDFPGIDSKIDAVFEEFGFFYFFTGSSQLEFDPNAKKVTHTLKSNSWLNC

Structure (SMILES)	pIC50 (TNF-α converting enzyme)	solubility at 0.5 h ([1]; water) [mg/mL]	pIC50 (collagenase (MMP-1); [2])	pIC50 (stromelysin (MMP-3))	also measured
CNC(=O)[C@H](Cc1ccc(NC(=N)N)cc1)NC(=O)[C@H](CC(C)C)C(CCCc1ccccc1)C(=O)NO (single isomer, unassigned) [Example 8, N-[4-(N-Hydroxyamino)-2(R)-isobutyl-3(R or S)-(3-phenyltrimethylene)succinyl]-L-4'-guanidophenylalanine-N-methylamideMonoacetate]	7.01	30 (≈ 57.2 mM)	8.22	8.22	
CNC(=O)[C@H](Cc1ccc(NC(=N)N)cc1)NC(=O)[C@H](CC(C)C)[C@H](O)C(=O)NO [Example 16, N-[4-(N-Hydroxyamino)-2(R)-isobutyl-3(S)-hydroxysuccinyl]-L-4'-guanidophenylalanine-N-methylamide Monoacetate]	5.15				
CNC(=O)[C@H](Cc1ccc(S(=O)(=O)O)cc1)NC(=O)[C@H](CC(C)C)C(CCCc1ccccc1)C(=O)NO (stereo partly drawn) [Example 4, N-[4-(N-Hydroxyamino)-2(R)-isobutyl-3(RS)-(3-phenyltrimethylene)succinyl]-L-4'-sulfophenylalanine-N-methylamide, Monosodium Salt]	6.29	150			
CCC(=N)NCc1ccc(C[C@H](NC(=O)[C@H](CC(C)C)C(CCCc2ccccc2)C(=O)NO)C(=O)NC)cc1 (single isomer, unassigned) [Example 11, N-[4-(N-Hydroxyamino)-2(R)-isobutyl-3(R or S)-(3-phenyltrimethylene)succinyl]-L-4'-propionimidoyliminomethylenephenylalanine-N-methylamide Monoacetate]	6.40		8.24	8.05	
CNC(=O)[C@H](Cc1ccc(S(=O)(=O)O)cc1)NC(=O)[C@H](CC(C)C)C(CSc1cccs1)C(=O)NO (single isomer, unassigned) [Example 5, N-[4-(N-Hydroxyamino)-2(R)-isobutyl-3(R or S)-(thienylthiomethylene)succinyl]-L-4'-sulfophenylalanine-N-methylamide, Monosodium Salt]	6.30				
CNC(=O)[C@H](Cc1cccc(OS(=O)(=O)O)c1)NC(=O)[C@H](CC(C)C)C(CCCc1ccccc1)C(=O)NO (single isomer, unassigned) [Example 15, N-[4-(N-Hydroxyamino)-2(R)-isobutyl-3(R or S)-(3-phenyltrimethylene)succinyl]-O-sulfo-L-meta-tyrosine-N-methylamide, Monosodium Salt]		120	8.10	8.24	
CNC(=O)[C@H](Cc1ccc(OP(=O)(O)O)cc1)NC(=O)C(CC(=O)NO)CC(C)C (single isomer, unassigned) [Example 9, N-[4-(N-Hydroxyamino)-2(R or S)-isobutylsuccinyl]-O-phospho-L-tyrosine-N-methylamide, Disodium Salt]				6.40	solubility at 0.5 h [1]: > 200 mg/mL; pIC50 (collagenase (MMP-1)): 7.77
CCCOC[C@H](C(=O)N[C@@H](Cc1ccc(S(=O)(=O)[O-])cc1)C(=O)NC)C(CSC(C)C)C(=O)NO.[Na+] (mixture of isomers) [Example 6, N-[4-(N-Hydroxyamino)-2(R)-n-propyloxymethylene-3(RS)-isopropylthiomethylenesuccinyl]-L-4'-sulfophenylalanine-N-methylamide, Monosodium Salt]			7.70	6.55	Solubility in water [1]: > 120 mg/mL
CNC(=O)[C@H](Cc1ccc(OS(=O)(=O)O)cc1)NC(=O)[C@H](CC(C)C)C(CCCc1ccccc1)C(=O)NO (single isomer, unassigned) [Example 3 (Isomer B), N-[4-(N-Hydroxyamino)-2(R)-isobutyl-3(R or S)-(3-phenyltrimethylene)succinyl]-O-sulfo-L-tyrosine-N-methylamide, Monosodium Salt]			9.40	8.27	Solubility in water ([1]; Monosodium Salt): 150 mg/mL
CCCOC[C@H](C(=O)N[C@@H](Cc1ccc(OC)cc1)C(=O)NC)[C@H](CSC(C)C)C(=O)NO [Comparative Compound 4, N-[4-(N-Hydroxyamino)-2(R)-n-propyloxymethylene-3(S)-isopropylthiomethylenesuccinyl]-O-methyl-L-tyrosine-N-methylamide, reference compound]		< 1	7.96	7.00	
